The compounds below were run against T1, rat A2B receptors (rA2B) (Rattus norvegicus, UniProt P29276) (assay: Radioligand binding, displacement of specific [125I]ABOPX binding). Conditions: displacement of specific [125I]ABOPX binding at rat A2B receptors expressed in HEK-293 cells; read-out: RatA2B Ki.
T1 construct: expressed in transfected cells; membranes)
T1 sequence (P29276 1-332): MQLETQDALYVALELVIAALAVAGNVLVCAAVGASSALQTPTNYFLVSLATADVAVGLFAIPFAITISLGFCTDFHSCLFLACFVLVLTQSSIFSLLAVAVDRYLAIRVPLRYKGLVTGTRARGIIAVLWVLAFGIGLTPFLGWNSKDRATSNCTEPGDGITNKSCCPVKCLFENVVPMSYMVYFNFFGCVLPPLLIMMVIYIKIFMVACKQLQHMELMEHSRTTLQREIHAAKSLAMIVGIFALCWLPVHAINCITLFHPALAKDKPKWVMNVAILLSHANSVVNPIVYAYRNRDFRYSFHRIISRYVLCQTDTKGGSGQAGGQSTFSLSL
Description: The rat A2B receptor cDNA was subcloned into the expression plasmid pDoubleTrouble using techniques described in Robeva, A. et al., Biochem. Pharmacol., 51, 545-555 (1996). The plasmid was amplified in competent JM109 cells and plasmid DNA isolated using Wizard Megaprep columns (Promega Corporation, Madison, Wis.). A2B adenosine receptors were introduced into HEK-293 cells by means of Lipofectin as described in Felgner, P. L. et al., Proc. Natl. Acad. Sci. USA, 84, 7413-7417 (1987).
Transfected HEK cells were grown under 5% CO2/[…] humidified atmosphere at a temperature of 37° C. Colonies were selected by growth of cells in 0.6 mg/mL G418. Transfected cells were maintained in DMEM supplemented with Hams F 12 nutrient mixture (1/1), 10% newborn calf serum, 2 mM glutamine and containing 50 IU/mL penicillin, […], and 0.2 mg/mL Geneticin (G418, Boehringer Mannheim). Cells were cultured in 10 cm diameter round plates and subcultured when grown confluent (approximately after 72 hours).
At A2B receptors: Confluent monolayers of HEK-A2B cells were washed with PBS followed by ice cold Buffer A (10 mM HEPES, 10 mM EDTA, pH 7.4) with protease inhibitors (10 μg/mL benzamidine, 100 μM phenylmethanesulfonyl fluoride, and 2 μg/mL of each aprotinin, pepstatin and leupeptin). The cells were homogenized in a Polytron (Brinkmann) for 20s, centrifuged at 30,000 ×g, and the pellets washed twice with buffer HE (10 mM HEPES, 1 mM EDTA, pH 7.4 with protease inhibitors). The final pellet was resuspended in buffer HE, supplemented with 10% sucrose and frozen in aliquots at −80° C. For binding assays membranes were thawed and diluted 5-10 fold with HE to a final protein concentration of approximately 1 mg/mL. To determine protein concentrations, membranes, and bovine serum albumin standards were dissolved in 0.2% NaOH/0.01% SDS and protein determined using fluorescamine fluorescence. Stowell, C. P. et al., Anal. Biochem., 85, 572-580 (1978).
Saturation binding assays for rat A2B adenosine receptors were performed with [^3H]ZM214,385 (17 Ci/mmol, Tocris Cookson, Bristol UK) (Ji, X. et al., Drug Design Discov., 16, 216-226 (1999)) or ^125I-ABOPX (2200 Ci/mmol). To prepare 125I-ABOPX, 10 μL of 1 mM ABOPX in methanol/1 M NaOH (20:1) was added to 50 μL of 100 mM phosphate buffer, pH 7.3. One or 2 mCi of Na^125I was added, followed by 10 μL of 1 mg/mL chloramine-T in water. After incubation, 20 minutes at room temperature, 50 μL of 10 mg/mL Na-metabisulfite in water was added to quench the reaction. The reaction mixture was applied to a C18 HPLC column, eluting with a mixture of methanol and 5 mM phosphate, pH 6.0. After 5 min at 35% methanol, the methanol concentration was ramped to 100% over 15 min. Unreacted ABOPX eluted in 11-12 minutes; ^125I-ABOPX eluted at 18-19 min in a yield of 50-60% with respect to the initial ^125I.
In equilibrium binding assays the ratio of ^127I/^125I-ABOPX was 10-20/1. Radioligand binding experiments were performed in triplicate with 20-25 μg membrane protein in a total volume of 0.1 mL HE buffer supplemented with 1 U/mL adenosine deaminase and 5 mM MgCl2. The incubation time was 3 h at 21° C. Nonspecific binding was measured in the presence of 100 μM NECA. Competition experiments were carried out using 0.6 nM ^125I-ABOPX. Membranes were filtered on Whatman GF/C filters using a Brandel cell harvester (Gaithersburg, Md.) and washed 3 times over 15-20 seconds with ice cold buffer (10 mM Tris, 1 mM MgCl2, pH 7.4). Bmax and KD values were calculated by Marquardt's nonlinear least squares interpolation for single a site binding models. Marquardt, D. M., J. Soc. Indust. Appl. Math., 11, 431-441.21 (1963). Ki values for different compounds were derived from IC50 values as described. Linden, J., J. Cycl. Nucl. Res., 8, 163-172 (1982). Data from replicate experiments are tabulated as means ±SEM. […]

Ki [nM]	SMILES
100 to 500	CCCn1c(=O)c2[nH]c(-c3ccc(NN)nc3)nc2n(CCC)c1=O [Compound 1, 1,3-Dipropyl-8-[6-hydrazino-3-pyridyl]xanthine]
100 to 500	CCn1c(=O)c2[nH]c(-c3ccc4nnc(C)n4c3)nc2n(CC)c1=O [Compound 4, 1,3-Diethyl-8-(3-methyl-[1,2,4]triazolo[4,3,a]pyridin-6-yl)-1H-purine-2,6(3H,7H)-dione]
100 to 500	CCCn1c(=O)c2[nH]c(-c3ccc(-n4nc(C)cc4-c4ccccc4)nc3)nc2n(CCC)c1=O [Compound 5, 8-(6-(3-methyl-5-phenyl-1H-pyrazol-1-yl)pyridin-3-yl)-1,3-Dipropyl-1H-purine-2,6(3H,7H)-dione]
< 100	CCCn1c(=O)c2[nH]c(-c3ccc(-n4nc(C(F)(F)F)cc4-c4ccco4)nc3)nc2n(CCC)c1=O [Compound 9, 8-(6-(3-(trifluoromethyl)-5-(furan-2-yl)-1H-pyrazol-1-yl)pyridin-3-yl)-1,3-Dipropyl-1H-purine-2,6(3H, 7H)-dione]
< 100	CCCn1c(=O)c2[nH]c(-c3ccc(-n4nc(-c5ccccc5)cc4N)nc3)nc2n(CCC)c1=O [Compound 15, 8-(6-(5-Amino-3-phenyl-1H-pyrazol-1-yl)pyridin-3-yl)-1,3-dipropyl-1H-purine-2,6(3H, 7H)-dione]

The next lines start with the compound.

SMILES	Ki [nM]
CCn1c(=O)c2[nH]c(-c3ccc(-n4nc(C)cc4-c4ccccc4)nc3)nc2n(CC)c1=O [Compound 2, 1,3-diethyl-8-(6-(3-methyl-5-phenyl-1H-pyrazol-1-yl)pyridin-3-yl)-1H-purine-2,6(3H,7H)-dione]	500 to 5000
CCn1c(=O)c2[nH]c(-c3ccc4nnc(C(F)(F)F)n4c3)nc2n(CC)c1=O [Compound 3, 1,3-Diethyl-8-(3-(trifluoromethyl)-[1,2,4]triazolo[4,3,a]pyridin-6-yl)-1H-purine-2,6(3H,7H)-dione]	100 to 500
CCCn1c(=O)c2[nH]c(-c3ccc(-n4nc(C(F)(F)F)cc4-c4cccs4)nc3)nc2n(CCC)c1=O [Compound 8, 8-(6-(3-(trifluoromethyl)-5-(thiophen-2-yl)-1H-pyrazol-1-yl)pyridin-3-yl)-1,3-Dipropyl-1H-purine-2,6(3H, 7H)-dione]	100 to 500
CCCn1c(=O)c2[nH]c(-c3ccc(-n4nc(C)cc4C)nc3)nc2n(CCC)c1=O [Compound 10]	100 to 500
CCCn1c(=O)c2[nH]c(-c3ccc(-n4nc(C(=O)OCC)cc4C)nc3)nc2n(CCC)c1=O [Compound 13]	100 to 500
CCCn1c(=O)c2[nH]c(-c3ccc4nncn4c3)nc2n(CCC)c1=O [Compound 14, 1,3-Dipropyl-8-([1,2,4]triazolo[4,3,a]pyridin-6-yl)-1H-purine-2,6(3H, 7H)-dione]	100 to 500
CCCn1c(=O)c2[nH]c(-c3ccc(-n4nc(-c5ccco5)cc4N)nc3)nc2n(CCC)c1=O [Compound 16, 8-(6-(5-Amino-3-(furan-2-yl)-1H-pyrazol-1-yl)pyridin-3-yl)-1,3-dipropyl-1H-purine-2,6(3H, 7H)-dione]	< 100

Reference: patent US7579348B2, “Derivatives of 8-substituted xanthines” (PGxHealth, LLC, priority 2005, dated 2009)
